The target of one experiment is T1, c-kit (Homo sapiens, UniProt P10721).
T1 construct: MO7e (human megakaryocytic leukemia cell line) which had been arrested for 20 hr; endogenous in cells; host or cells: MO7e human megakaryocytic leukemia cell line
Put plainly: Inhibitory activity against c-kit autophosphorylation (MO7e cells, h-SCF). Type of experiment: cell-based. The conditions noted are these: for IC50: MO7e cells, h-SCF 50 ng/ml, read-out: c-kit IC50. Put shortly:
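Growth-arrested (20 hr) MO7e; cpd in DMSO, 1 hr; h-SCF 50 ng/ml, 5 min; lyse. ELISA: anti-pTyr (PY-20) capture, anti-c-kit 1° Ab, HRP anti-rabbit 2° Ab, A450.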

A further experiment addresses T2, PDGF-Ra (Homo sapiens, UniProt P16234).
T2 construct: host or cells: G-292 human osteosarcoma cells
The experiment is described as follows: Inhibitory activity against PDGF-Ra phosphorylation by PDGF-AA stimulation using G292. Type of experiment: cell-based. The conditions noted are these: for IC50: Pharmacological Test Example 1, > means inhibition at indicated concentration not more than 50%, < and << not less than 50%, read-out: PDGF (E) IC50; for inhibition at 0.1 µM: G292, figure in parentheses in >100( ), at 100 nM, read-out: PDGF (E) inhibition (%) at 100 nM. An outline of the steps:
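Phospho-PDGF-Ra ELISA: capture with PY-20 antiphosphotyrosine, detection with anti-PDGF-Ra and peroxidase secondary, read at 450 nm. Lysates came from G-292 osteosarcoma cells starved in 0.1% FBS, compound-treated 1 hr at 37° C, and stimulated with 50 ng/ml PDGF-AA for 5 min.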

In general, IC50 refers to the concentration at which inhibition is half-maximal. As usually defined, the inhibition is the drop in the measured response relative to a control, in per cent.

T1 sequence (P10721 26-976): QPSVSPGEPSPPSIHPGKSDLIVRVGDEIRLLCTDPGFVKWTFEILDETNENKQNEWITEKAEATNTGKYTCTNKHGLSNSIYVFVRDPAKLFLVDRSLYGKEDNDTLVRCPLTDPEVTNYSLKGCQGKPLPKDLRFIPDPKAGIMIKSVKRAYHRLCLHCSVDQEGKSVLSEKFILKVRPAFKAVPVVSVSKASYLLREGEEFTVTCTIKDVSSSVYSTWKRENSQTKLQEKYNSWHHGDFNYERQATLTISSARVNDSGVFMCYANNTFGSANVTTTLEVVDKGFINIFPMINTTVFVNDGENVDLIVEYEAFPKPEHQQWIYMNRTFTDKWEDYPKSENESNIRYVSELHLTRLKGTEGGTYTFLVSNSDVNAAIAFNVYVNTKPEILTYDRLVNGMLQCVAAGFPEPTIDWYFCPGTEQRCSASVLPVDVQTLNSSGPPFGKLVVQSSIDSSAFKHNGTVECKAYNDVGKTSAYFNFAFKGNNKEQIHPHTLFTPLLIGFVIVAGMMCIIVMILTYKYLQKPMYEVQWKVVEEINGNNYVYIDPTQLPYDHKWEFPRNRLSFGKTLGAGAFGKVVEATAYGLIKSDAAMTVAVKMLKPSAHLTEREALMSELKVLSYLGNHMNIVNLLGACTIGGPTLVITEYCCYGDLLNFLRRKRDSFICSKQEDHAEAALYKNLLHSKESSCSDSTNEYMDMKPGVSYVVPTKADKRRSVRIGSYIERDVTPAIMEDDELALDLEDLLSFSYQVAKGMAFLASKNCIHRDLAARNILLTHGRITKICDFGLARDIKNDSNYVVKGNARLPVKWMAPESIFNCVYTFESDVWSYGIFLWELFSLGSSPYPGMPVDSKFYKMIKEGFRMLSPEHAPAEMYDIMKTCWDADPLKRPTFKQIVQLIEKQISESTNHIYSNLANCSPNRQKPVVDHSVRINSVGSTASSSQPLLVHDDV
T2 sequence (P16234 24-1089): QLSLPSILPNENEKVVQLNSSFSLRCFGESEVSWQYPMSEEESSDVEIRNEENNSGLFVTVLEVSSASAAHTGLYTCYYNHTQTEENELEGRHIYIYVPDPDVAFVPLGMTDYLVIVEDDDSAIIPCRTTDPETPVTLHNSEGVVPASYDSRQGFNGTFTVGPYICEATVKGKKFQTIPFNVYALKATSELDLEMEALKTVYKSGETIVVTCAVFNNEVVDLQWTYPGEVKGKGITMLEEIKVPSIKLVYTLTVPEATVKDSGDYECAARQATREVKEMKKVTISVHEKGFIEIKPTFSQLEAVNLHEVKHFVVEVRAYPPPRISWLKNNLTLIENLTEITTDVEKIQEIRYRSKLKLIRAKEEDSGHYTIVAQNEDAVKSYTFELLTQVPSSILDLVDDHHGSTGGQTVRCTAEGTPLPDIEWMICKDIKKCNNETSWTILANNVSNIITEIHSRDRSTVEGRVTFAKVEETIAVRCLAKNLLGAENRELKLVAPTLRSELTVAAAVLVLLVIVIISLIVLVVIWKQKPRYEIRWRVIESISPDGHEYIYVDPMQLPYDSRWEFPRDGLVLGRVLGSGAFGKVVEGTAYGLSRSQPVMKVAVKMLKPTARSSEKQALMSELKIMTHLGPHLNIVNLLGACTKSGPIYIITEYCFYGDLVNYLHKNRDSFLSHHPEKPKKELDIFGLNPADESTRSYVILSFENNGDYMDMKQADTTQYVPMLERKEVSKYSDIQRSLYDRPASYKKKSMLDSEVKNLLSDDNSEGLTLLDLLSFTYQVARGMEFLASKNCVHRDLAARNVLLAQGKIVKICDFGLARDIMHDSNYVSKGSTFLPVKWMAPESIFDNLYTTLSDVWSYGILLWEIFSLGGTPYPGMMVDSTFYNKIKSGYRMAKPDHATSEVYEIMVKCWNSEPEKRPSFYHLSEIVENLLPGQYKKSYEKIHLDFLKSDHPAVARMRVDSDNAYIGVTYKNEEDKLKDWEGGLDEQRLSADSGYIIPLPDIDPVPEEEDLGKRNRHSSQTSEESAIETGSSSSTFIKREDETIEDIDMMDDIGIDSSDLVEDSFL

Turning to `COc1cc2nccc(Oc3ccc(NC(=O)OCCCOc4ccc(Cl)cc4)c(C)c3C)c2cc1OC` [Example 28, 3-(4-Chlorophenoxy)propyl N-{4-[(6,7-dimethoxy-4-quinolyl)oxy]-2,3-dimethylphenyl}carbamate], the half-maximal inhibitory concentration (IC50) is 118 nM at c-kit and less than 10 nM on PDGF-Ra.

As to `COc1cc2nccc(Oc3cc(C)c(NC(=O)OCCCOc4ccc(Cl)cc4)cc3C)c2cc1OC` [Example 29, 3-(4-Chlorophenoxy)propyl N-{4-[(6,7-dimethoxy-4-quinolyl)oxy]-2,5-dimethylphenyl}carbamate], the figures for the IC50 at c-kit and on PDGF-Ra were 121 nM and 27 nM, respectively.

For the compound `COc1cc2ncnc(Oc3ccc(NC(=O)OCCCOc4ccc(Cl)cc4)cc3)c2cc1OC` [Example 30, 3-(4-Chlorophenoxy)propyl N-{4-[(6,7-dimethoxy-4-quinazolinyl)oxy]phenyl}carbamate], the IC50 was less than 30 nM at c-kit and less than 10 nM at PDGF-Ra.

As for `COc1cc2ncnc(Oc3ccc(NC(=O)OCCCOc4ccc(Cl)cc4)c(Cl)c3)c2cc1OC` [Example 31, 3-(4-Chlorophenoxy)propyl N-{2-chloro-4-[(6,7-dimethoxy-4-quinazolinyl)oxy]phenyl}carbamate], the IC50 at c-kit was 221 nM; at PDGF-Ra, less than 10 nM.

Consider `COc1ccc(C(C)OC(=O)Nc2ccc(Oc3ccnc4cc(OC)c(OC)cc34)cc2)cc1` (stereo not drawn) [Example 32, 1-(4-Methoxyphenyl)ethyl N-{4-[(6,7-dimethoxy-4-quinolyl)oxy]phenyl}carbamate], for which the values for the half-maximal inhibitory concentration (IC50) on c-kit and at PDGF-Ra were 227 nM and 16 nM, respectively.

On to `COc1ccc(C(C)OC(=O)Nc2ccc(Oc3ccnc4cc(OC)c(OC)cc34)c(C)c2C)cc1` (stereo not drawn) [Example 33, 1-(4-Methoxyphenyl)ethyl N-{4-[(6,7-dimethoxy-4-quinolyl)oxy]-2,3-dimethylphenyl}carbamate], for which the results for the 50% inhibitory concentration (IC50) at c-kit and at PDGF-Ra were 362 nM and 23 nM, respectively.

Consider `COc1ccc(C(C)OC(=O)Nc2cc(C)c(Oc3ccnc4cc(OC)c(OC)cc34)cc2C)cc1` (stereo not drawn) [Example 34, 1-(4-Methoxyphenyl)ethyl N-{4-[(6,7-dimethoxy-4-quinolyl)oxy]-2,5-dimethylphenyl}carbamate], for which, on c-kit, the IC50 was found to be 800 nM. Besides, on PDGF-Ra, the inhibition at 0.1 µM worked out at 45% and the half-maximal inhibitory concentration (IC50) is greater than 100 nM.

Consider `COc1ccc(C(C)OC(=O)Nc2ccc(Oc3ncnc4cc(OC)c(OC)cc34)cc2)cc1` (stereo not drawn) [Example 35, 1-(4-Methoxyphenyl)ethyl N-{4-[(6,7-dimethoxy-4-quinazolinyl)oxy]phenyl}carbamate], for which the values for the IC50 at c-kit and on PDGF-Ra were 342 nM and less than 10 nM, respectively.

As for `COc1ccc(C(C)OC(=O)Nc2ccc(Oc3ncnc4cc(OC)c(OC)cc34)cc2Cl)cc1` (stereo not drawn) [Example 36, 1-(4-Methoxyphenyl)ethyl N-{2-chloro-4-[(6,7-dimethoxy-4-quinazolinyl)oxy]phenyl}carbamate], the inhibition at 1 µM at c-kit (Mo7e, figure in parentheses in −( ), at 1000 nM) came out at 19%. For the same compound, on PDGF-Ra, the inhibition at 0.1 µM came out at 34% and the IC50 was greater than 100 nM.

On to `COc1cc2nccc(Oc3ccc(NC(=O)OCCCSc4ccc(C)cc4)cc3)c2cc1OC` [Example 37, 3-[(4-Methylphenyl)sulfanyl)propyl N-{4-[(6,7-dimethoxy-4-quinolyl)oxy]phenyl}carbamate], for which the IC50 at c-kit was less than 30 nM; at PDGF-Ra, less than 10 nM.

For `COc1cc2nccc(Oc3ccc(NC(=O)OCCCSc4ccc(C)cc4)c(C)c3C)c2cc1OC` [Example 38], the half-inhibitory concentration (IC50) on c-kit was 33 nM; at PDGF-Ra, less than 10 nM.

As for `COc1cc2nccc(Oc3cc(C)c(NC(=O)OCCCSc4ccc(C)cc4)cc3C)c2cc1OC` [Example 39, 3-[(4-Methylphenyl)sulfanyl)propyl N-{4-[(6,7-dimethoxy-4-quinolyl)oxy]-2,5-dimethylphenyl}-carbamate], the IC50 was 56 nM on c-kit and less than 10 nM on PDGF-Ra.

Turning to `COc1cc2ncnc(Oc3ccc(NC(=O)OCCCSc4ccc(C)cc4)cc3)c2cc1OC` [Example 40, 3-[(4-Methylphenyl)sulfanyl)propyl N-{4-[(6,7-dimethoxy-4-quinazolinyl)oxy]phenyl}carbamate], the IC50 on c-kit was 55 nM; on PDGF-Ra, less than 10 nM.

For the compound `COc1cc2ncnc(Oc3ccc(NC(=O)OCCCSc4ccc(C)cc4)c(Cl)c3)c2cc1OC` [Example 41, 3-[(4-Methylphenyl)sulfanyl)propyl N-{2-chloro-4-[(6,7-dimethoxy-4-quinazolinyl)oxy]phenyl}-carbamate], the IC50 on c-kit was 185 nM; on PDGF-Ra it was less than 10 nM.

As for `COc1ccc(OCCCOC(=O)Nc2ccc(Oc3ccnc4cc(OC)c(OC)cc34)cc2)cc1` [Example 42, 3-(4-Methoxyphenoxy)propyl N-{4-[(6,7-dimethoxy-4-quinolyl)oxy]phenyl}carbamate], the IC50 was 73 nM on c-kit and less than 10 nM on PDGF-Ra.

Take `COc1ccc(OCCCOC(=O)Nc2ccc(Oc3ccnc4cc(OC)c(OC)cc34)c(C)c2C)cc1` [Example 43, 3-(4-Methoxyphenoxy)propyl N-{4-[(6,7-dimethoxy-4-quinolyl)oxy]-2,3-dimethylphenyl}carbamate]: the figures for the concentration for half-maximal inhibition (IC50) at c-kit and at PDGF-Ra were 158 nM and less than 10 nM, respectively.

Turning to `COc1ccc(OCCCOC(=O)Nc2cc(C)c(Oc3ccnc4cc(OC)c(OC)cc34)cc2C)cc1` [Example 44, 3-(4-Methoxyphenoxy)propyl N-{4-[(6,7-dimethoxy-4-quinolyl)oxy]-2,5-dimethylphenyl}carbamate], the concentration for half-maximal inhibition (IC50) at c-kit stood at 328 nM; at PDGF-Ra, 19 nM.

As for `COc1ccc(OCCCOC(=O)Nc2ccc(Oc3ncnc4cc(OC)c(OC)cc34)cc2)cc1` [Example 45, 3-(4-Methoxyphenoxy)propyl N-{4-[(6,7-dimethoxy-4-quinazolinyl)oxy]phenyl}carbamate], the values for the IC50 on c-kit and at PDGF-Ra were 91 nM and less than 10 nM, respectively.

On to `COc1ccc(OCCCOC(=O)Nc2ccc(Oc3ncnc4cc(OC)c(OC)cc34)cc2Cl)cc1` [Example 46, 3-(4-Methoxyphenoxy)propyl N-{2-chloro-4-[(6,7-dimethoxy-4-quinazolinyl)oxy]phenyl}carbamate], for which the half-maximal inhibitory concentration (IC50) on c-kit was 388 nM; on PDGF-Ra, 22 nM.

As for `COc1cccc(OCCCOC(=O)Nc2ccc(Oc3ccnc4cc(OC)c(OC)cc34)c(C)c2C)c1` [Example 48, 3-(3-Methoxyphenoxy)propyl N-{4-[(6,7-dimethoxy-4-quinolyl)oxy]-2,3-dimethylphenyl}carbamate], the 50% inhibitory concentration (IC50) is 162 nM on c-kit and less than 10 nM on PDGF-Ra.

Turning to `COc1cccc(OCCCOC(=O)Nc2ccc(Oc3ncnc4cc(OC)c(OC)cc34)cc2)c1` [Example 50, 3-(3-Methoxyphenoxy)propyl N-{4-[(6,7-dimethoxy-4-quinazolinyl)oxy]phenyl}carbamate], the IC50 was 50 nM on c-kit and less than 10 nM on PDGF-Ra.

`COc1cccc(OCCCOC(=O)Nc2ccc(Oc3ncnc4cc(OC)c(OC)cc34)cc2Cl)c1` [Example 51, 3-(3-Methoxyphenoxy)propyl N-{2-chloro-4-[(6,7-dimethoxy-4-quinazolinyl)oxy]phenyl}carbamate]: the values for the concentration for half-maximal inhibition (IC50) at c-kit and on PDGF-Ra were 270 nM and 14 nM, respectively.

As for `COc1cccc(C(C)OC(=O)Nc2ccc(Oc3ccnc4cc(OC)c(OC)cc34)cc2)c1` (stereo not drawn) [Example 52, 1-(3-Methoxyphenyl)ethyl N-{4-[(6,7-dimethoxy-4-quinolyl)oxy]phenyl}carbamate], the half-inhibitory concentration (IC50) at c-kit is 273 nM; on PDGF-Ra it was less than 10 nM.

As for `COc1cccc(C(C)OC(=O)Nc2ccc(Oc3ccnc4cc(OC)c(OC)cc34)c(C)c2C)c1` (stereo not drawn) [Example 53, 1-(3-Methoxyphenyl)ethyl N-{4-[(6,7-dimethoxy-4-quinolyl)oxy]-2,3-dimethylphenyl}carbamate], the values for the 50% inhibitory concentration (IC50) at c-kit and at PDGF-Ra were 480 nM and less than 10 nM, respectively.

`COc1cccc(C(C)OC(=O)Nc2cc(C)c(Oc3ccnc4cc(OC)c(OC)cc34)cc2C)c1` (stereo not drawn) [Example 54, 1-(3-Methoxyphenyl)ethyl N-{4-[(6,7-dimethoxy-4-quinolyl)oxy]-2,5-dimethylphenyl}carbamate]: the concentration for half-maximal inhibition (IC50) at c-kit stood at 473 nM; on PDGF-Ra, 15 nM.

Turning to `COc1cccc(C(C)OC(=O)Nc2ccc(Oc3ncnc4cc(OC)c(OC)cc34)cc2)c1` (stereo not drawn) [Example 55, 1-(3-Methoxyphenyl)ethyl N-{4-[(6,7-dimethoxy-4-quinazolinyl)oxy]phenyl}carbamate], the IC50 at c-kit was 288 nM; on PDGF-Ra, less than 10 nM.

In the case of `COc1cccc(C(C)OC(=O)Nc2ccc(Oc3ncnc4cc(OC)c(OC)cc34)cc2Cl)c1` (stereo not drawn) [Example 56, 1-(3-Methoxyphenyl)ethyl N-{2-chloro-4-[(6,7-dimethoxy-4-quinazolinyl)oxy]phenyl}carbamate], the IC50 at c-kit turned out to be 774 nM; on PDGF-Ra it was 11 nM.

As to `COc1cc2nccc(Oc3ccc(NC(=O)OCc4ccc(C(C)(C)C)cc4)cc3)c2cc1OC` [Example 57, 4-(Tert-butyl)benzyl N-{4-[(6,7-dimethoxy-4-quinolyl)oxy]phenyl}carbamate], the IC50 on c-kit is 393 nM; on PDGF-Ra, 11 nM.

Turning to `COc1cc2nccc(Oc3ccc(NC(=O)OCc4ccc(C(C)(C)C)cc4)c(C)c3C)c2cc1OC` [Example 58, 4-(Tert-butyl)benzyl N-{4-[(6,7-dimethoxy-4-quinolyl)oxy]-2,3-dimethylphenyl}carbamate], the 50% inhibitory concentration (IC50) at c-kit was determined as 499 nM; at PDGF-Ra, 12 nM.

These data come from US7135466B2 (Kirin Beer Kabushiki Kaisha, priority 1999, dated 2006).
